Measurements: patent US20120046327A1, “METHOD FOR INHIBITING THE INDUCTION AND FORMATION OF OSTEOCLASTS” (OSAKA UNIVERSITY, priority 2005, published 2012)
Values belong to the compound of their own block, whether it stands above or below them.

Experiments:
[1] = system: RANKL (Receptor Activator of NK-κB Ligand) in human osteoblasts; assay: sRANKL expression increased by AngII in human osteoblasts; format: cell-based; conditions: two-day cultivation
Method: Purpose: Using human osteoblasts, expression of RANKL (Receptor Activator of NK-κB Ligand) which increases with angiotensin 2 (AngII) was measured. Then, inhibitory effect of olmesartan doxomil was examined.
Methods: Human osteoblasts (Clonetics Corp., Palo Alto, Calif.) were cultured in DMEM medium under conditions of 10% FCS, 5% CO2 and 37° C. AngII (1 μM) (Sigma) was added to the culture. After two-day cultivation, sRANKL (soluble Receptor Activator of NK-κB Ligand) contained in the culture supernatant was examined by […] (Biomedica). Further, effect produced by simultaneous administration of olmesartan (1 μM) or angiotensin type II receptor antagonist PD (123319) (chemical name: (S)-1-(4-[dimethylamino]-3-methylphenyl)methyl-5-(diphenylacetyl)-4,5,6,7-tetrahydro-1H-imidazo[4,5-c]pyridine-6-carboxylate) (1 μM) (Sigma-aldrich) was also examined.

[2] = system: osteoclasts (TRAP positive multinucleated cells) in domestic rabbit bone marrow culture system; assay: Osteoclast formation induced by active vitamin D3 in domestic rabbit bone marrow culture (TRAP staining); format: cell-based, domestic rabbit (New Zealand White Rabbit)
Method: Purpose: Using a domestic rabbit bone marrow culture system, the number of osteoclasts which were differentiation-induced by active vitamin D3 was measured. Then, inhibitory effect of olmesartan medoxomil was examined.
Methods: A three-day-old domestic rabbit (New Zealand White Rabbit) was sacrificed, followed by removal of the thigh bone and the tibia. After collection of the bone marrow, the leukocyte (granulocyte-monocyte) fraction was isolated and cultured under conditions of α-MEM, 10% FBS, 5% CO2, 37° C. 24-well culture plates were used for the culture. The cell count was adjusted to 5×10^4 cells/well. Active vitamin D3 (10^−8M) was added to the culture system. On day 3, 7 and 10 of the culture, cells were fixed with 4% paraformaldehyde and stained with tartarate-resistant acid phosphatase (TRAP staining) under acidic conditions (pH 5.0). The number of multinucleated cells stained with red (osteoclasts) was measured. Similar measurement was performed with addition of olmesartan at concentrations of 10^−8, 10^−7 and 10^−6M. With respect to TRAP positive cells (generally, containing 1 to 100 nuclei in one cell), they were divided into three groups depending on the degree of fusion: small cells (containing 1 to 2 nuclei), medium cells (containing 3 to 9 nuclei) and large cells (containing 10 or more nuclei).

[3] = system: TRAP (tartarate-resistant acid phosphatase) activity in the thigh bone; assay: TRAP activity in the thigh bone of ovariectomized spontaneously hypertensive rats; format: in vivo, spontaneously hypertensive rats (SHR); conditions: osmotic pump, one month after ovariectomy, ovariectomy group 76.9±9.9, non-treatment 59.6±1.0
Method: (§1) Purpose: Using spontaneously hypertensive rats, increase in TRAP (tartarate-resistant acid phosphatase) activity in the thigh bone and decrease in the bone density after ovariectomy were measured. Then, inhibitory effects of olmesartan medoxomil against TRAP activity increase and bone density decrease were examined. TRAP is a marker enzyme for osteoclasts, and TRAP activity increases when osteoclasts are activated. When osteoclasts are activated, bone is resorbed and thus bone density is decreased.
(§2) Methods: The ovary was removed from 8-week-old female spontaneously hypertensive rats (SHR) (Charles River). After one month observation, the thigh bone was removed, followed by measurement of TRAP activity in the bone (Walter K., et al., Method of Enzymatic Analysis, Academic Press, New York & London: 1974; 856-870) and simultaneous measurement of bone density (Venken K., et al., Bone 2005; 36: 663-670). Further, from immediately after the ovariectomy, olmesartan was administered subcutaneously at two different concentrations of 0.5 mg/kg/day and 1 mg/kg/day using an osmotic pressure pump (Alzet model 2004; Alza Corp).

[4] = Bone density, bone length and weight in ovariectomized spontaneously hypertensive rats; format: in vivo, spontaneously hypertensive rats (SHR); conditions: one month after ovariectomy, ovariectomy group 0.1438±0.003445, non-treatment 0.1685±0.002684
Method: as §1, §2
Although administration of olmesartan brought no changes in the length and weight of the bone, concentration dependent decrease was recognized in TRAP activity in the thigh bone (Ovariectomy+ARB0.5 group: 71.7±8.7 U/L; Ovariectomy+ARB 1 group: 66.1±3.6 U/L). […]

[5] = Blood pressure and heart rate in ovariectomized spontaneously hypertensive rats (Table A); format: in vivo, spontaneously hypertensive rats (SHR); conditions: average value; for Blood Pressure (diastolic): ovariectomy group 94.6667; for Blood Pressure (average): ovariectomy group 107; for Blood Pressure (systolic): ovariectomy group 131.667
Method: as §2
Although administration of olmesartan brought no changes in the length and weight of the bone, concentration dependent decrease was recognized in TRAP activity in the thigh bone (Ovariectomy+ARB0.5 group: 71.7±8.7 U/L; Ovariectomy+ARB 1 group: 66.1±3.6 U/L). Concentration dependent decrease in blood pressure was also recognized as a result of administration of olmesartan (Table A).

[6] = AngII 1 μM plus test substance 1 μM added simultaneously, AngII group 1.045±0.129, control 0.133±0.0271
[7] = Ovariectomy + 1 mg/kg/day (n = 3)

Compound: Cc1cc(Cn2cnc3c2C[C@@H](C(=O)O)N(C(=O)C(c2ccccc2)c2ccccc2)C3)ccc1N(C)C [PD (123319), (S)-1-(4-[dimethylamino]-3-methylphenyl)methyl-5-(diphenylacetyl)-4,5,6,7-tetrahydro-1H-imidazo[4,5-c]pyridine-6-carboxylate]
sRANKL in culture supernatant [1, 6]: 0.747 ± 0.0855 pM

growth of coexisting mesenchymal cells ([2]; any of the groups (10^−8, 10^−7, 10^−6 M)): no remarkable change
Compound: CCCc1nc(C(C)(C)O)c(C(=O)O)n1Cc1ccc(-c2ccccc2-c2nnn[nH]2)cc1 [olmesartan, 4-(1-hydroxy-1-methylethyl)-2-propyl-1-[4-[2-(tetrazole-5-yl)phenyl]phenyl]methylimidazole-5-carboxylic acid]
TRAP positive cells, average cell count, medium cells (containing 3 to 9 nuclei) ([2]; day 10, olmesartan 10^−6 M, active vitamin D3 10^−8M, control 68.6): 50.2 | TRAP positive cells, average cell count, large cells (containing 10 or more nuclei) ([2]; day 10, olmesartan 10^−6 M, active vitamin D3 10^−8M, control 80.6): 23.0 | TRAP positive cells, average cell count, small cells (containing 1 to 2 nuclei) ([2]; day 10, olmesartan 10^−6 M, active vitamin D3 10^−8M, control 101.6): 192.8 | fusion of mononuclear cells ([2]; olmesartan 10^−6 M, day 3, compared to control group): significantly reduced | change in TRAP positive cell count compared to the control group ([2]; olmesartan 10^−6 M, day 10): a significant reduction | change in TRAP positive cell count compared to the control group ([2]; olmesartan 10^−7 M, day 10): a reduction in TRAP positive cell count | change in TRAP positive cell count compared to the control group ([2]; olmesartan 10^−8 M): no remarkable change | osteoclasts contributing to bone resorption (medium and large cells) ([2]; olmesartan addition groups, control group 149.2, p<0.05): 73.2 | total number of TRAP positive, multinucleated cells ([2]; olmesartan addition groups, control group 250.8, no statistically significant difference): 265.0 | sRANKL in culture supernatant [1, 6]: 0.0442 ± 0.0328 pM | TRAP activity in the thigh bone ([3]; 0.5 mg/kg/day subcutaneously): 71.7±8.7 U/L | TRAP activity in the thigh bone ([3]; 1 mg/kg/day subcutaneously): 66.1±3.6 U/L | bone density (dual-energy X-ray absorptiometry) ([4]; 0.5 mg/kg/day subcutaneously): 0.1527±0.003454 g/cm^2 | bone density (dual-energy X-ray absorptiometry) ([4]; 1 mg/kg/day subcutaneously): 0.1539±0.004365 g/cm^2 | Blood Pressure (diastolic) ([5]; Ovariectomy + 0.5 mg/kg/day): 68.3333 | Blood Pressure (average) ([5]; Ovariectomy + 0.5 mg/kg/day): 81.3333 | Blood Pressure (systolic) ([5]; Ovariectomy + 0.5 mg/kg/day): 107 | Blood Pressure (diastolic) [5, 7]: 45.8 | Blood Pressure (average) [5, 7]: 56.25 | Blood Pressure (systolic) [5, 7]: 70.8

sRANKL in culture supernatant ([1]; AngII 1 μM alone, non-addition control 0.133±0.0271): 1.045 ± 0.129 pM
Compound: AngII: angiotensin 2 (AngII) (Sigma), added at 1 μM to human osteoblast culture; increases RANKL expression (DRVYIHPF; Angiotensin-2; UniProt P01019 25-32, looked up)
